row,Compound,melting point
1,CC(=O)c1cc(-c2ccncc2)sc1N(C)Cc1ccccc1.Cl,199 to 202 °C
2,CC(=O)c1cc(-c2ccncc2)sc1Oc1cccc(Oc2ccc(F)cc2)c1.Cl,251 to 253 °C
3,CC(=O)c1c(CC(C)C)oc(-c2ccncc2)c1C.Cl,171 to 174 °C
4,"CC(=O)c1c(C)oc(-c2ccncc2)c1C [Example 1, 3-Acetyl-2,4-dimethyl-5-(4-pyridyl)furan]",65 to 66.5 °C
5,"Cc1c(-c2ccncc2)oc2c1C(=O)CCC2 [Example 2, 3-Methyl-4-oxo-2-(4-pyridyl)-4,5,6,7-tetrahydrobenzofuran]",136 to 138 °C
6,"CC(=O)c1c(-c2ccccc2)oc(-c2ccncc2)c1C [Example 3, 3-Acetyl-4-methyl-2-phenyl-5-(4-pyridyl)furan]",108 to 110 °C
7,"Cc1c(-c2ccncc2)oc2c1C(=O)C(C)(C)CC2 [Example 6, 4-Oxo-2-(4-pyridyl)-3,5,5-trimethyl-4,5,6,7-tetrahydrobenzofuran]",133 to 134 °C
8,"Cc1c(-c2ccncc2)oc2c1C(=O)CCC2(C)C [Example 7, 4-Oxo-2-(4-pyridyl)-3,7,7-trimethyl-4,5,6,7-tetrahydrobenzofuran]",138 to 140 °C
9,"Cc1c(-c2ccncc2)oc2c1C(=O)OC(C)C2 (stereo not shown) [Example 10, 6,7-Dihydro-3,6-dimethyl-2-(4-pyridyl)-furo[3,2-c]pyran-4-one]",157 to 160 °C
10,"CCc1c(-c2ccncc2)oc2c1C(=O)CCC2(C)C [Example 11, 3-Ethyl-7,7-dimethyl-4-oxo-2-(4-pyridyl)-4,5,6,7-tetrahydrobenzofuran]",86 to 88 °C
11,"CC1(C)CCC(=O)c2c1oc(-c1ccncc1)c2-c1ccccc1 [Example 12, 7,7-Dimethyl-3-phenyl-4-oxo-2-(4-pyridyl)4,5,6,7-tetrahydrobenzofuran]",156 to 157 °C
12,"O=C1CCCc2sc(-c3ccncc3)cc21 [Example 16, 4-Oxo-2-(4-pyridyl)-4,5,6,7-tetrahydro-benzo(b)thiophene]",156 to 158 °C
13,"CC(=O)c1c(-c2ccncc2)sc(Cl)c1C [Example 17, 3-Acetyl-5-chloro-4-methyl-2-(4-pyridyl)thiophene]",60 to 61 °C
14,"CC(=O)c1c(C)sc(-c2ccncc2)c1C [Example 18, 3-Acetyl-2,4-dimethyl-5-(4-pyridyl)thiophene]",80 to 81 °C
15,"Cc1c(-c2ccncc2)sc2c1C(=O)CCC2 [Example 20, 3-Methyl-4-oxo-2-(4-pyridyl)4,5,6,7-tetrahydrobenzothiophene]",129 to 130 °C
16,"O=S(=O)(c1cc(-c2ccncc2)sc1-c1ccncc1)N1CCCC1 [Example 25, 2,5-Di(4-pyridyl)-3-(pyrrolidine-1-sulfonyl)thiophene]",193 to 195 °C
17,"CC(=O)c1csc(-c2ccncc2)c1C [Example 27, 4-Acetyl-3-methyl-2-(4-pyridyl)thiophene]",87 to 87.5 °C
18,"O=C(c1ccccc1)c1cc(-c2ccncc2)sc1-c1ccncc1 [Example 33, 3-Benzoyl-2,5-di(4-pyridyl)thiophene]",168 to 170 °C

row,Compound,melting point
1,"CC(=O)c1c(-c2ccsc2)sc(-c2ccncc2)c1C [Example 35, 3-Acetyl-4-methyl-5-(4-pyridyl)-2-(3-thienyl)thiophene]",98 to 100 °C
2,"CSc1ccc(-c2sc(-c3ccncc3)c(C)c2C(C)=O)cc1 [Example 36, 3-Acetyl-4-methyl-5-(4-pyridyl)-2-(4-methylthiophenyl)thiophene]",106 to 108 °C
3,"CC(=O)c1cc(-c2ccncc2)sc1N1CCN(C)CC1 [Example 38, 3-Acetyl-2-(4-methylpiperazin-1-yl)-5-(4-pyridyl)thiophene]",115 to 117 °C
4,"CC(=O)c1cc(-c2ccncc2)sc1Oc1ccccc1 [Example 42, 3-Acetyl-2-phenoxy-5-(4-pyridyl)thiophene]",103 to 105 °C
5,"CC(=O)c1sc2sc(-c3ccncc3)c(C)c2c1C [Example 43, 2-Acetyl-3,4-dimethyl-5-(4-pyridyl)thieno[2,3-b]thiophene]",171 to 173 °C
6,"O=C1CCCc2c(Cl)sc(-c3ccncc3)c21 [Example 45, 1-Chloro-3-(4-pyridyl)-4,5,6,7-tetrahydrobenzo(c)thiophen-4-one]",93 to 95 °C
7,"CSc1sc(-c2ccncc2)c2c1C(=O)CCC2 [Example 47, 3-Methylthio-1-(4-pyridyl)-4,5,6,7-tetrahydrobenzo(c)thiophen-4-one]",115 to 116 °C
8,"CN(C)C(=O)CCc1cc(-c2ccncc2)sc1-c1ccncc1 [Example 49, N,N-Dimethyl-3-[2,5-di-(4-pyridyl)3-thienyl]propionamide]",166.5 to 167 °C
9,"O=C1CCc2c(-c3ccncc3)sc(-c3ccccc3F)c21 [Example 53, 3-(2-Fluorophenyl)-1-(4-pyridyl)-5,6-dihydro-4H-cyclopenta(c)thiophene-4-one]",133 to 135 °C
10,"O=C1CCc2c(Cl)sc(-c3ccncc3)c21 [Example 54, 1-Chloro-3-(4-pyridyl)-5,6-dihydro-4H-cyclopenta(c)thiophene-4-one]",163 to 165 °C
11,"CC(=O)c1cc(-c2ccncc2)sc1Oc1ccccc1F [Example 56, 3-Acetyl-2-(2-fluorophenoxy)-5-(4-pyridyl)thiophene]",93 to 96 °C
12,"CC(=O)c1cc(-c2ccncc2)sc1Oc1cc(F)ccc1F [Example 57, 3-Acetyl-2-(2,5-difluorophenoxy)-5-(4-pyridyl)thiophene]",119 to 121 °C
13,"O=C1CCc2c(-c3ccncc3)sc(-c3ccc(F)cc3)c21 [Example 58, 3-(4-Fluorophenyl)-1-(4-pyridyl)-5,6-dihydro-4H-cyclopenta(c)thiophene-4-one]",193 to 195 °C
14,"CC(=O)c1cc(-c2ccncc2)sc1Oc1ccc(F)cc1 [Example 62, 3-Acetyl-2-(4-fluorophenoxy)-5-(4-pyridyl)thiophene]",147 to 149 °C
15,"O=C1CCc2c(-c3ccncc3)sc(-c3cccnc3)c21 [Example 63, 1-(4-Pyridyl)-3-(3-pyridyl)-5,6-dihydro-4H-cyclopenta(c)thiophene-4-one]",214 to 216 °C
16,"O=C1CCc2c(-c3ccncc3)sc(-c3ccc(C(F)(F)F)cc3)c21 [Example 66, 1-(4-Pyridyl)-3-(4-trifluoromethylphenyl)-5,6-dihydro-4H-cyclopenta(c)thiophene-4-one]",158 to 160 °C
17,"O=C1CCc2c(-c3ccc(F)cc3)sc(-c3ccncc3)c21 [Example 67, 1-(4-Fluorophenyl)-3-(4-pyridyl)-5,6-dihydro-4H-cyclopenta(c)thiophene-4-one]",155 to 157 °C

# Next, values leading:
row,melting point,Compound
1,258 to 261 °C (dec.),Cc1c(-c2ccncc2)sc(-c2ccncc2)c1C=NO.Cl.Cl
2,205 to 208 °C (dec.),CCOC(=O)CCc1cc(-c2ccncc2)sc1-c1ccncc1.Cl.Cl
3,219 to 222 °C (dec.),Cc1c(-c2ccncc2)sc(-c2ccncc2)c1CNO.Cl.Cl.Cl
4,117 to 118 °C,"CC(=O)c1sc(-c2ccncc2)c(C)c1-c1ccncc1 [Example 13, 2-Acetyl-4-methyl-3,5-di(4-pyridyl)thiophene]"
5,140 to 142 °C,"CC(=O)c1sc(-c2ccncc2)c(-c2ccncc2)c1C [Example 14, 2-Acetyl-3-methyl-4,5-di(4-pyridyl)thiophene]"
6,137 to 138 °C,"CC(=O)c1c(-c2ccncc2)sc(-c2ccncc2)c1C [Example 15, 3-Acetyl-4-methyl-2,5-di(4-pyridyl)thiophene]"
7,111 to 112 °C,"CC(=O)c1c(-c2ccccc2)sc(-c2ccncc2)c1C [Example 19, 3-Acetyl-4-methyl-2-phenyl-5-(4-pyridyl)thiophene]"
8,155 to 157 °C,"Cc1c(-c2ccncc2)sc(-c2ccncc2)c1C(C)O (stereo not shown) [Example 21, 2,5-Di(4-pyridyl)-3-(1-hydroxyethyl)-4-methylthiophene]"
9,168 to 170 °C,"O=C1CCc2c(-c3ccncc3)sc(-c3ccncc3)c21 [Example 22, 1,3-Di(4-pyridyl)-5,6-dihydro-4H-cyclopenta(c)thiophen-4-one]"
10,133 to 135 °C,"COC(=O)c1cc(-c2ccncc2)sc1-c1ccncc1 [Example 23, 2,5-Di(4-pyridyl)-3-methoxycarbonylthiophene]"
11,117 to 119 °C,"CC(=O)c1cc(-c2ccncc2)sc1-c1ccncc1 [Example 24, 3-Acetyl-2,5-di(4-pyridyl)thiophene]"
12,205 to 207 °C,"N#Cc1cc(-c2ccncc2)sc1-c1ccncc1 [Example 29, 3-Cyano-2,5-di(4-pyridyl)thiophene]"
13,116 to 118 °C,"CC(=O)c1c(-c2ccc(F)cc2)sc(-c2ccncc2)c1C [Example 32, 3-Acetyl-2-(4-fluorophenyl)-4-methyl-5-(4-pyridyl)thiophene]"
14,139 to 139.5 °C,"Cc1c(-c2ccncc2)sc(-c2ccncc2)c1C=O [Example 34, 2,5-Di(4-pyridyl)-4-methylthiophene-3-carbaldehyde]"
15,157 to 160 °C,"O=C1CCCc2c(-c3ccncc3)sc(-c3ccncc3)c21 [Example 41, 1,3-Di(4-pyridyl)-4,5,6,7-tetrahydrobenzo(c)thiophen-4-one]"
16,197 to 199 °C,"CNC(=O)c1cc(-c2ccncc2)sc1-c1ccncc1 [Example 52, N-Methyl-{2,5-di(4-pyridyl)thiophen-3-yl}carboxamide]"
17,240 to 242 °C,"NC(=O)c1cc(-c2ccncc2)sc1-c1ccncc1 [Example 59, 2,5-Di(4-pyridyl)-3-thiophenecarboxamide]"
18,139 to 142 °C,"CC(C)OC(=O)c1cc(-c2ccncc2)sc1-c1ccncc1 [Example 60, 3-(Isopropyloxycarbonyl)-2,5-di(4-pyridyl)thiophene]"
19,148 to 148.5 °C,"Cc1c(-c2ccncc2)sc(-c2ccncc2)c1CF [Example 65, 2,5-Di(4-pyridyl)-3-fluoromethyl-4-methylthiophene]"
20,196 to 196.5 °C,"NC(=O)CCc1cc(-c2ccncc2)sc1-c1ccncc1 [Example 70, 3-[2,5-di-(4-pyridyl)3-thienyl]propionamide]"

# Reference: patent US6696470B2, “Pyridylthiophene compounds” (Pfizer Inc., priority 1997, dated 2004)
